Results from ChEMBL document CHEMBL1201862, “PubChem BioAssay data set” (2004).
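96-well plates; 48 h exposure; 5 concentrations. Endpoints by linear interpolation between flanking doses. Not reached: highest tested concentration assigned. GI50: concentration for 50% inhibition of growth.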 The source made the active and inactive calls. No stated cut-off is given here; in the data, active = GI50 up to about 1.1 µM and inactive = higher.

Experiments:
Assay in all cases: NCI tumour cell line growth inhibition, 48 h
[1] = test system: UACC-257
[2] = test system: OVCAR-4
[3] = test system: HT-29
[4] = test system: U-251
[5] = test system: A549
[6] = test system: BT-549
[7] = test system: SW-620
[8] = test system: NCI-H460
[9] = test system: SNB-19
[10] = test system: HOP-62
[11] = test system: SNB-75
[12] = test system: NCI-H23
[13] = test system: CCRF-CEM
[14] = test system: MCF7
[15] = test system: MDA-MB-231
[16] = test system: OVCAR-5
[17] = test system: RXF 393
[18] = test system: NCI/ADR-RES
[19] = test system: T47D
[20] = test system: SN12C
[21] = test system: SR
[22] = test system: SK-MEL-5
[23] = test system: M14
[24] = test system: HCT-15
[25] = test system: LOX IMVI
[26] = test system: TK-10
[27] = test system: EKVX
[28] = test system: OVCAR-3
[29] = test system: SF-539
[30] = test system: SK-MEL-2
[31] = test system: MOLT-4
[32] = test system: IGROV-1
[33] = test system: RPMI-8226
[34] = test system: UO-31
[35] = test system: MDA-N
[36] = test system: COLO 205
[37] = test system: MDA-MB-435
[38] = test system: KM12
[39] = test system: NCI-H226
[40] = test system: OVCAR-8
[41] = test system: A498
[42] = test system: HCC 2998
[43] = test system: HCT-116
[44] = test system: 786-0
[45] = test system: UACC-62
[46] = test system: DU-145
[47] = test system: SF-268
[48] = test system: Malme-3M
[49] = test system: K562
[50] = test system: NCI-H522
[51] = test system: SK-MEL-28
[52] = test system: SK-OV-3
[53] = test system: ACHN
[54] = test system: SF-295
[55] = test system: HL-60
[56] = test system: CAKI-1
[57] = test system: HOP-92
[58] = test system: PC-3
[59] = test system: Hs-578T

O=C(O)c1ccccc1/C=C1\Cc2cc3c(cc2C1=O)CCC3
GI50 [1]: 26.5 µM (inactive)
GI50 [2]: 28.1 µM (inactive)
GI50 [3]: 19.2 µM (inactive)
GI50 [4]: 30.1 µM (inactive)
GI50 [5]: 30.1 µM (inactive)
GI50 [6]: 56.9 µM (inactive)
GI50 [7]: 21.8 µM (inactive)
GI50 [8]: 24.2 µM (inactive)
GI50 [9]: 26.7 µM (inactive)
GI50 [10]: 25.3 µM (inactive)
GI50 [11]: 3.57 µM (inactive)
GI50 [12]: 18.1 µM (inactive)
GI50 [13]: 18.8 µM (inactive)
GI50 [14]: 20.7 µM (inactive)
GI50 [15]: 20.3 µM (inactive)
GI50 [16]: 57.1 µM (inactive)
GI50 [17]: 21.3 µM (inactive)
GI50 [18]: 17.3 µM (inactive)
GI50 [19]: 9.23 µM (inactive)
GI50 [20]: 20.4 µM (inactive)
GI50 [21]: 4.72 µM (inactive)
GI50 [22]: 18.1 µM (inactive)
GI50 [23]: 23.5 µM (inactive)
GI50 [24]: 16.3 µM
GI50 [25]: 14.9 µM (inactive)
GI50 [26]: 17.8 µM (inactive)
GI50 [27]: 32.1 µM (inactive)
GI50 [28]: 31.2 µM (inactive)
GI50 [29]: 29.1 µM (inactive)
GI50 [30]: 23.4 µM (inactive)
GI50 [31]: 17.4 µM (inactive)
GI50 [32]: 23.6 µM (inactive)
GI50 [33]: 21.1 µM (inactive)
GI50 [34]: 33.9 µM (inactive)
GI50 [35]: 11.9 µM (inactive)
GI50 [36]: 21.9 µM (inactive)
GI50 [37]: 12.7 µM (inactive)
GI50 [38]: 19.2 µM (inactive)
GI50 [39]: 24 µM (inactive)
GI50 [40]: 26.3 µM (inactive)
GI50 [41]: 30.8 µM (inactive)
GI50 [42]: 27.6 µM (inactive)
GI50 [43]: 27.9 µM (inactive)
GI50 [44]: 29 µM (inactive)
GI50 [45]: 16.9 µM (inactive)
GI50 [46]: 25.3 µM (inactive)
GI50 [47]: 35.3 µM (inactive)
GI50 [48]: 26.9 µM (inactive)
GI50 [49]: 17.1 µM (inactive)
GI50 [50]: 18.9 µM (inactive)
GI50 [51]: 50.5 µM (inactive)
GI50 [52]: 36.2 µM (inactive)
GI50 [53]: 34.4 µM (inactive)
GI50 [54]: 24 µM (inactive)
GI50 [55]: 6.59 µM (inactive)

CN1C(=O)[C@@]2(C=CC3(CC2)OCCO3)c2ccccc21
GI50 [1]: > 50 µM (inactive)
GI50 [2]: > 50 µM (inactive)
GI50 [3]: > 50 µM (inactive)
GI50 [4]: > 50 µM (inactive)
GI50 [5]: > 50 µM (inactive)
GI50 [6]: > 50 µM (inactive)
GI50 [7]: > 50 µM (inactive)
GI50 [56]: > 50 µM (inactive)
GI50 [8]: > 50 µM (inactive)
GI50 [9]: > 50 µM (inactive)
GI50 [10]: > 32.1 µM (inactive)
GI50 [11]: > 25.9 µM (inactive)
GI50 [12]: 21.8 µM (inactive)
GI50 [13]: > 50 µM (inactive)
GI50 [14]: 48.5 µM (inactive)
GI50 [15]: > 50 µM (inactive)
GI50 [57]: > 50 µM (inactive)
GI50 [16]: > 50 µM (inactive)
GI50 [17]: > 50 µM (inactive)
GI50 [18]: > 50 µM (inactive)
GI50 [19]: 35 µM (inactive)
GI50 [20]: > 50 µM (inactive)
GI50 [21]: > 50 µM (inactive)
GI50 [22]: > 50 µM (inactive)
GI50 [23]: > 50 µM (inactive)
GI50 [24]: > 48.2 µM
GI50 [25]: > 50 µM (inactive)
GI50 [26]: > 50 µM (inactive)
GI50 [27]: 49.2 µM (inactive)
GI50 [28]: > 50 µM (inactive)
GI50 [30]: > 50 µM (inactive)
GI50 [31]: > 46.3 µM (inactive)
GI50 [32]: 0.48 µM (active)
GI50 [33]: > 50 µM (inactive)
GI50 [34]: > 50 µM (inactive)
GI50 [35]: > 50 µM (inactive)
GI50 [36]: > 50 µM (inactive)
GI50 [37]: > 45 µM (inactive)
GI50 [38]: > 37.5 µM (inactive)
GI50 [39]: > 50 µM (inactive)
GI50 [40]: > 50 µM (inactive)
GI50 [41]: > 50 µM (inactive)
GI50 [42]: > 50 µM (inactive)
GI50 [43]: > 50 µM (inactive)
GI50 [44]: > 50 µM (inactive)
GI50 [45]: > 50 µM (inactive)
GI50 [46]: > 50 µM (inactive)
GI50 [47]: 10.3 µM (inactive)
GI50 [49]: > 50 µM (inactive)
GI50 [58]: > 45.4 µM (inactive)
GI50 [50]: 8.53 µM (inactive)
GI50 [51]: > 50 µM (inactive)
GI50 [52]: > 50 µM (inactive)
GI50 [53]: 49.5 µM (inactive)
GI50 [54]: > 50 µM (inactive)
GI50 [55]: 35.7 µM (inactive)

CC(=O)OC1OC(c2ccoc2)C[C@@]12C1CCC3O[C@]3(C)[C@]1(C)[C@H](OC(C)=O)[C@H](OC(C)=O)[C@H]2C (stereo partly drawn)
GI50 [1]: > 37.5 µM (inactive)
GI50 [2]: > 37.5 µM (inactive)
GI50 [3]: > 37.5 µM (inactive)
GI50 [4]: > 37.5 µM (inactive)
GI50 [5]: > 37.5 µM (inactive)
GI50 [6]: > 37.5 µM (inactive)
GI50 [7]: > 37.5 µM (inactive)
GI50 [56]: > 37.5 µM (inactive)
GI50 [8]: > 37.5 µM (inactive)
GI50 [9]: > 37.5 µM (inactive)
GI50 [10]: > 37.5 µM (inactive)
GI50 [12]: 30.3 µM (inactive)
GI50 [13]: 11.2 µM (inactive)
GI50 [14]: > 37.5 µM (inactive)
GI50 [15]: > 37.5 µM (inactive)
GI50 [57]: > 37.5 µM (inactive)
GI50 [16]: > 37.5 µM (inactive)
GI50 [17]: > 37.5 µM (inactive)
GI50 [18]: > 37.5 µM (inactive)
GI50 [20]: > 37.5 µM (inactive)
GI50 [21]: 18.1 µM (inactive)
GI50 [22]: > 37.5 µM (inactive)
GI50 [23]: > 37.5 µM (inactive)
GI50 [24]: > 37.5 µM
GI50 [25]: 28.1 µM (inactive)
GI50 [26]: > 37.5 µM (inactive)
GI50 [59]: > 37.5 µM (inactive)
GI50 [27]: > 37.5 µM (inactive)
GI50 [28]: > 37.5 µM (inactive)
GI50 [29]: > 37.5 µM (inactive)
GI50 [30]: > 37.5 µM (inactive)
GI50 [31]: 18.5 µM (inactive)
GI50 [32]: > 37.5 µM (inactive)
GI50 [34]: > 37.5 µM (inactive)
GI50 [35]: > 37.5 µM (inactive)
GI50 [36]: > 37.5 µM (inactive)
GI50 [38]: > 37.5 µM (inactive)
GI50 [39]: > 37.5 µM (inactive)
GI50 [40]: > 37.5 µM (inactive)
GI50 [41]: > 37.5 µM (inactive)
GI50 [42]: > 37.5 µM (inactive)
GI50 [43]: > 37.5 µM (inactive)
GI50 [44]: > 37.5 µM (inactive)
GI50 [45]: > 37.5 µM (inactive)
GI50 [48]: > 37.5 µM (inactive)
GI50 [49]: > 37.5 µM (inactive)
GI50 [58]: > 37.5 µM (inactive)
GI50 [51]: > 37.5 µM (inactive)
GI50 [52]: > 37.5 µM (inactive)
GI50 [53]: > 37.5 µM (inactive)
GI50 [54]: > 37.5 µM (inactive)
GI50 [55]: 6.62 µM (inactive)
